Test results reported in publication PMC6152131, “Pharmacokinetic Study of Biotransformation Products from an Anxiolytic Fraction of Tilia americana” (Molecules : A Journal of Synthetic Chemistry and Natural …, 2017).

Legend:
[1] = Pharmacokinetic analysis, two-compartment model (PKSolver); format: in vivo, ICR mice
Experimental: The data shown in Table 2 were applied to the program PKSolver. After a single oral administration of 200 mg/kg of the anxiolitic fraction of T. americana, the behavior of the concentration-time data allowed us to determine the main pharmacokinetic parameters under a two-compartment model (Table 3), and the same program provided the graphical behavior of the variables and the adjustment to the two-compartment model.
(§1) To evaluate the suitability of the assay for the pharmacokinetic studies, 200 mg/kg of the active fraction was orally administered to the animals. Ten animals were used in each group at different times (0, 5, 10, 15, 30, 60, 120, 240, 480, 720, and 1440 min). Pharmacokinetic calculations were performed using the observed data. All data was subsequently processed using the PKSolver add-in program for Microsoft Excel written in Visual Basic for Applications. All values obtained were expressed in mean ± standard deviation.
For the pharmacokinetic assay, the selection was made either from a one-compartment or a two-compartment model, with the use of both the Akaike information criterion (AIC) and the Schwarz criterion (SC). Using these two criteria, one can select which model is more suited to being adjusted, to the point where it reaches the lowest values of the AIC or SC criteria, which means that the chosen model is more parsimonious (less parameters required) and best fits the data (low error prediction).

[2] = Plasma concentration after a single oral dose of the anxiolytic fraction (HPLC); format: in vivo, ICR mice; details: mouse, plasma, ICR mice, n = 10
Experimental: Eleven groups of ten animals each were randomly formed. All animals were orally administered with 200 mg/kg of the active fraction. Animals were anaesthetized with ether, and blood samples were obtained from the retroorbital sinus with a heparinized capillary, each group was examined at different times (0, 5, 10, 15, 30, 60, 120, 240, 480, 720, and 1440 min) after the active fraction was administered. […] Then the plasma samples were frozen and lyophilized. The dry plasma was subsequently used to extract and measure the concentration of the flavonoids and biotransformation products.
(§2) Plasma dried pulverized samples were extracted with methanol (HPLC grade, Merck). The extracts were filtered with Teflon membrane dimensions 0.45 μm by 13 mm (Millex®-LCR); 20 μL of each filtered sample was injected into the HPLC equipment. The measurements were performed in a (Waters corporation, Milford, CT, USA) 2695 HPLC with a diode array detector (Waters 2996) and processed with the Empower Pro 1.0 software. A Chromolith Performance® RP-18e 100 × 4.6 mm (Merck KGaA, Darmstadt, Germany) was used. The mobile phase consisted of a mixture of acetonitrile and water with the proportion 55:45 and a flow rate of 1 mL/min. The concentrations of the flavonoids and the biotransformation products were obtained by comparison with a pre-built calibration curve at λ = 220 nm.
as §1

[3] = Stability of flavonoids and biotransformation products in mouse plasma under different handling conditions; format: in vitro ADME, mice; details: for Accuracy Bias 0 h / Observed Conc. 0 h / Accuracy Bias 8 h / Observed Conc. 8 h / Accuracy Bias 24 h / Observed Conc. 24 h: room temperature (25 °C); for Observed Conc. 0 h / Observed Conc. 8 h / Observed Conc. 24 h / Observed Conc. Autosampler (4 °C; 8 h) / Observed Conc. Long-term (−70 °C; 1 month): n = 6; for Accuracy Bias Autosampler (4 °C; 8 h) / Accuracy Bias Long-term (−70°C; 1 month) / Observed Conc. Autosampler (4 °C; 8 h) / Observed Conc. Long-term (−70 °C; 1 month): storage stability
Experimental: as §2
[…] The investigation enclosed here expected manipulation conditions during all the sample storage and process periods, which included the stability data from the freeze/thaw, bench-top, autosampler, and long–term stability tests.
For all stability studies, fresh QC samples were evaluated by using a freshly prepared standard curve for the measurements. The concentrations obtained from all the stability studies were compared with the fresh QC samples, and the percentage concentration deviation was calculated. The analytes were considered stable in the mouse plasma when the concentration difference between the freshly prepared samples and the stability samples was less than 15%.

[4] = mouse, oral 200 mg/kg anxiolytic fraction, ICR mice plasma, two-compartment model
[5] = oral 200 mg/kg anxiolytic fraction, ICR mice plasma, two-compartment model
[6] = oral 200 mg/kg anxiolytic fraction, ICR mice plasma, two-compartment model, n = 10
[7] = high nominal conc. (7.00; 44.37; 4.50; 31.25 µg/mL)
[8] = low nominal conc. (1.75; 11.02; 1.12; 1.95 µg/mL)
[9] = medium nominal conc. (3.50; 22.18; 2.24; 7.81 µg/mL)

ka smaller than the ka of DOPAC ([1]; mouse, in vivo): 79%
AUC(0-inf) [1, 4]: 124000 ng·h/mL
Cmax [1, 4]: 5760 ng/mL
Tmax [1, 4]: 0.235 h
AUC(0-t) ([1]; mouse, oral 200 mg/kg anxiolytic fraction, ICR mice plasma, two-compartment model, read-out: AUC0→1440 (converted)): 61400 ng·h/mL
MRT ([1]; mouse, oral 200 mg/kg anxiolytic fraction, ICR mice plasma, two-compartment model, read-out: MRT (mean residence time) (converted)): 35.4 h
k el ([1]; mouse, oral 200 mg/kg anxiolytic fraction, ICR mice plasma, two-compartment model, read-out: k10 (apparent first-order elimination rate constant from the central compartment) (converted)): 1.5e-05 s⁻¹
half-life ([1]; mouse, oral 200 mg/kg anxiolytic fraction, ICR mice plasma, two-compartment model, read-out: t1/2β): 25 h
CL/F (apparent clearance) [1, 5]: 0.026 (mg/Kg)/(μg/mL)/min
V/F (apparent volume of distribution) [1, 5]: 30.45 (mg/Kg)/(µg/mL)
k12 (transfer rate constant central to peripheral compartment) [1, 5]: 0.009 min⁻¹
k21 (transfer rate constant peripheral to central compartment) [1, 5]: 0.01 min⁻¹
ka (apparent first-order absorption rate constant) [1, 5]: 0.24 min⁻¹
t1/2ka (absorption half time) [1, 5]: 2.84 min
t1/2α [1, 5]: 0.5847 h
α [1, 5]: 0.02 min⁻¹
β [1, 5]: 0.0005 min⁻¹
A (plasma concentration coefficient, central compartment) [1, 6]: 3.49 µg/mL
B (plasma concentration coefficient, peripheral compartment) [1, 6]: 3.36 µg/mL
index: relation between rate constants of k12 with respect to k21 ([1]; two-compartment model): 0.9
concentration at 5 min ([2]; 5 min after single oral dose of 200 mg/kg of the anxiolytic fraction, ND = not detected): 4670 ± 270 ng/mL
concentration at 10 min ([2]; 10 min after single oral dose of 200 mg/kg of the anxiolytic fraction): 5060 ± 220 ng/mL
concentration at 15 min ([2]; 15 min after single oral dose of 200 mg/kg of the anxiolytic fraction): 4750 ± 290 ng/mL
concentration at 30 min ([2]; 30 min after single oral dose of 200 mg/kg of the anxiolytic fraction): 4520 ± 280 ng/mL
concentration at 60 min ([2]; 60 min after single oral dose of 200 mg/kg of the anxiolytic fraction): 4290 ± 130 ng/mL
concentration at 120 min ([2]; 120 min after single oral dose of 200 mg/kg of the anxiolytic fraction): 4170 ± 330 ng/mL
concentration at 240 min ([2]; 240 min after single oral dose of 200 mg/kg of the anxiolytic fraction): 4110 ± 230 ng/mL
concentration at 480 min ([2]; 480 min after single oral dose of 200 mg/kg of the anxiolytic fraction): 4040 ± 250 ng/mL
concentration at 720 min ([2]; 720 min after single oral dose of 200 mg/kg of the anxiolytic fraction): 3940 ± 190 ng/mL
concentration at 1440 min ([2]; 1440 min after single oral dose of 200 mg/kg of the anxiolytic fraction): 3790 ± 280 ng/mL
Accuracy Bias 0 h ([3]; high nominal conc.): 1.88%
Observed Conc. 0 h ([3]; high nominal conc. (rutin 7.00; quercetin glucoside, quercitrin, tiliroside 44.37; kaempferol 4.50; m-HPAA, p-HPAA, DOPAC 31.25 µg/mL)): 31.40 ± 0.10 µg/mL
Accuracy Bias 0 h ([3]; low nominal conc.): 0.47%
Observed Conc. 0 h ([3]; low nominal conc. (rutin 1.75; quercetin glucoside, quercitrin, tiliroside 11.02; kaempferol 1.12; m-HPAA, p-HPAA, DOPAC 1.95 µg/mL)): 1.91 ± 0.2 µg/mL
Accuracy Bias 0 h ([3]; medium nominal conc.): 0.13%
Observed Conc. 0 h ([3]; medium nominal conc. (rutin 3.50; quercetin glucoside, quercitrin, tiliroside 22.18; kaempferol 2.24; m-HPAA, p-HPAA, DOPAC 7.81 µg/mL)): 7.80 ± 0.01 µg/mL
Accuracy Bias 8 h ([3]; high nominal conc.): 0.90%
Observed Conc. 8 h [3, 7]: 31.53 ± 0.19 µg/mL
Accuracy Bias 8 h ([3]; low nominal conc.): 2.23%
Observed Conc. 8 h [3, 8]: 1.91 ± 0.03 µg/mL
Accuracy Bias 8 h ([3]; medium nominal conc.): 2.18%
Observed Conc. 8 h [3, 9]: 7.98 ± 0.12 µg/mL
Accuracy Bias 24 h ([3]; high nominal conc.): 0.30%
Observed Conc. 24 h [3, 7]: 31.34 ± 0.07 µg/mL
Accuracy Bias 24 h ([3]; low nominal conc.): 2.73%
Observed Conc. 24 h [3, 8]: 1.90 ± 0.04 µg/mL
Accuracy Bias 24 h ([3]; medium nominal conc.): 0.09%
Observed Conc. 24 h [3, 9]: 7.82 ± 0.01 µg/mL
Accuracy Bias Autosampler (4 °C; 8 h) ([3]; high nominal conc.): 2.73%
Accuracy Bias Long-term (−70°C; 1 month) ([3]; high nominal conc.): 2.23%
Observed Conc. Autosampler (4 °C; 8 h) [3, 7]: 31.34 ± 0.07 µg/mL
Observed Conc. Long-term (−70 °C; 1 month) [3, 7]: 31.20 ± 0.19 µg/mL
Accuracy Bias Autosampler (4 °C; 8 h) ([3]; low nominal conc.): 0.09%
Accuracy Bias Long-term (−70°C; 1 month) ([3]; low nominal conc.): 0.90%
Observed Conc. Autosampler (4 °C; 8 h) [3, 8]: 1.93 ± 0.04 µg/mL
Observed Conc. Long-term (−70 °C; 1 month) [3, 8]: 1.92 ± 0.03 µg/mL
Accuracy Bias Autosampler (4 °C; 8 h) ([3]; medium nominal conc.): 0.30%
Accuracy Bias Long-term (−70°C; 1 month) ([3]; medium nominal conc.): 2.18%
Observed Conc. Autosampler (4 °C; 8 h) [3, 9]: 7.82 ± 0.01 µg/mL
Observed Conc. Long-term (−70 °C; 1 month) [3, 9]: 7.80 ± 0.12 µg/mL
SMILES: O=C(O)Cc1cccc(O)c1 [m-HPAA, meta-hydroxyphenylacetic acid]
